Laboratory results reported in BigSolDB 2.1.

CS(=O)(=O)OCCCCOS(C)(=O)=O
solubility (mole fraction)
Details | 278.15 K | 283.15 K | 288.15 K | 293.15 K | 298.15 K | 303.15 K | 308.15 K | 313.15 K | 318.15 K | 323.15 K
in 2-butoxyethanol | 0.000161 | 0.000208 | 0.000261 | 0.000332 | 0.000417 | 0.000522 | 0.00066 | 0.000811 | 0.00102 | 0.00124
in 2-ethoxyethanol | 0.000166 | 0.000255 | 0.000389 | 0.000587 | 0.000857 | 0.00128 | 0.00179 | 0.00259 | 0.00367 | 0.00511
in 2-methoxyethanol | 0.000446 | 0.000675 | 0.00104 | 0.00149 | 0.0022 | 0.00311 | 0.00438 | 0.00609 | 0.0085 | 0.0118
in 2-propoxyethanol | 0.000168 | 0.000221 | 0.00031 | 0.000398 | 0.00053 | 0.000693 | 0.000905 | 0.00118 | 0.00155 | 0.00196
in DMF | 0.0116 | 0.0151 | 0.0194 | 0.0248 | 0.0317 | 0.0397 | 0.0495 | 0.0611 | 0.076 | 0.0929
in DMSO | – | – | – | – | 0.0367 | 0.0459 | 0.0567 | 0.0695 | 0.0851 | 0.103
in NMP | 0.0172 | 0.0215 | 0.0266 | 0.0328 | 0.0401 | 0.0487 | 0.059 | 0.0713 | 0.0853 | 0.102
in ethanol | 1.55e-05 | 2.49e-05 | 3.95e-05 | 6.08e-05 | 9.34e-05 | 0.000142 | 0.000211 | 0.000315 | 0.00046 | 0.000655
in ethyl acetate | 0.000385 | 0.000575 | 0.00081 | 0.00112 | 0.0016 | 0.00209 | 0.00287 | 0.0038 | 0.00525 | 0.00705
in methanol | 4.32e-05 | 6.97e-05 | 0.000107 | 0.000167 | 0.000251 | 0.000379 | 0.000555 | 0.000813 | 0.00119 | 0.00169
in methyl acetate | 0.000892 | 0.00109 | 0.00179 | 0.00248 | 0.00323 | 0.0045 | 0.00592 | 0.008 | 0.0107 | 0.0145
in n-butanol | 6.8e-06 | 1.09e-05 | 1.72e-05 | 2.66e-05 | 4.22e-05 | 6.35e-05 | 9.25e-05 | 0.000135 | 0.000191 | 0.000276
in n-butyl acetate | 0.000209 | 0.000289 | 0.000402 | 0.000549 | 0.000785 | 0.000962 | 0.00122 | 0.00175 | 0.00218 | 0.00281
in n-propanol | 4.5e-06 | 8e-06 | 1.43e-05 | 2.4e-05 | 4.05e-05 | 6.68e-05 | 0.000107 | 0.000173 | 0.000277 | 0.000444
in n-propyl acetate | 0.00016 | 0.000298 | 0.000468 | 0.000649 | 0.00101 | 0.00137 | 0.00195 | 0.00272 | 0.00386 | 0.00531
